Measurements published in ChEMBL document CHEMBL1150004, “A general approach toward the design of mechanism-based inactivators of serine proteinases: inactivation of human leukocyte elastase by a phthalimide derivative” (Bioorg Med Chem Lett, 1993).

Target: T1, Neutrophil elastase (Homo sapiens) (UniProt P08246)
T1 sequence (whole entry): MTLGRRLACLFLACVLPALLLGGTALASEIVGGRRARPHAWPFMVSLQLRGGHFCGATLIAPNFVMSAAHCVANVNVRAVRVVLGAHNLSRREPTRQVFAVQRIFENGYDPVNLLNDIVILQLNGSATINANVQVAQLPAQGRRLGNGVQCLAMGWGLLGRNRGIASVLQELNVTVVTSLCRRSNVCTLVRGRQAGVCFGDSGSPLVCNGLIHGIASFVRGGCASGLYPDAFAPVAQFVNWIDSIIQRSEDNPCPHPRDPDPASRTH
Experiment: Bimolecular rate constant of the interaction of compound with Human Leukocyte Elastase was evaluated

In the case of `CCOC(=O)C(F)N1C(=O)c2ccccc2C1=O` (stereo unspecified), the K obs / 1 is reported as 40 M⁻¹ s⁻¹.
